Reference: patent US20090099160A1, “4-(4-(Imidazol-4-Yl) Pyrimidin-2-Ylamino) Benzamides as CDK Inhibitors” (priority 2004, published 2009)

How the values were obtained:
[1] = High Throughput Blood Level Assay - Mice; type: in vivo; settings: male, Alpk..APfCD-1, plasma, 2 mg/kg; AP mouse, oral cocktail dosing, normalised to 1 mg/kg
Description: (§1) The level of oral exposure of a compound can be measured by the following assay. This assay gives a semi-quantitative measure of the concentration of the compound achieved in the blood at a number of time points. Data available include Cmax (highest concentration achieved), and the AUC (area under the plasma concentration/time curve) for the compound. This gives a high throughput measure of likelihood of obtaining blood levels for each compound following oral dosing and as the data are normalised for dose, it allows direct comparison of each compound.
The above assay may be run using mice in place of rats, but with the following variations.
For a profile in mice 10 male mice are dosed at the same level as to rats but they are not fasted or predosed with water. Furthermore, samples from mice are all terminal, with 2 mice per time point.
The mice used in the above experiment were AP mice. The AP mouse was originally obtained from a commercial breeder Schoefields in 1956. The stock was rederived by fostering onto a CD-1 Charles Rivers (commercial supplier) outbred mouse and has remained a closed colony ever since. The nomenclature for these animals is Alpk..APfCD-1.

[2] = High Throughput Blood Level Assay - Rat; type: in vivo; settings: male, Alderley Park (AP), Wistar derived, Alpk..APfSD, plasma, oral cocktail dosing, normalised to a 1 mg/kg dose
Description: as §1
A cocktail of 6 compounds is formulated in propylene glycol using a combination of vortex mixing, sonication and high speed shear mixing. This formulation consists of 5 test compounds (1 mg/ml) and a standard (0.5 mg/ml). The resulting formulation is a solution or a stable (≧several hours) suspension.
The formulation is dosed (2 ml/kg) to two male rats (170-250 gm) which have been fasted for ≦16 hours then pre-dosed with water (˜10 ml/kg). The dose for the test compounds is 2 mg/kg and for the standard it is 1 mg/kg. […]
Samples are analysed by LC/MS-MS and the concentration obtained is used to determine the Cmax μg/ml (maximum compound level detected), AUC0-6 hr μg/hr/ml (area under the curve) and tmax hr (time that the maximum compound levels have been measured) for a given compound to give an indication of exposure […]

[3] = target: T1, CDK2/Cyclin E (Homo sapiens, UniProt P24941); assay: CDK2/Cyclin E in vitro kinase assay (Scintillation Proximity Assay, GST-Rb substrate); type: biochemical; settings: read-out: CDK2 inhibitory activity IC50
T1 construct: made in house; host or cells: Sf21 insect cells (baculovirus co-infection, pVL1393); the GST-Rb substrate was made in E. coli BL21 (DE3) pLysS
Experimental: The compounds were tested in an in vitro kinase assay in 96 well format using Scintillation Proximity Assay (SPA—obtained from Amersham) for measuring incorporation of [γ-33-P]-Adenosine Triphosphate into a test substrate (GST-Retinoblastoma protein; GST-Rb). In each well was placed the compound to be tested (diluted in DMSO and water to correct concentrations) and in control wells either roscovitine as an inhibitor control or DMSO as a positive control. […]
The plates were sealed with Topseal-S plate sealers, left for two hours then spun at 2500 rpm, 1124 xg., for 5 minutes. The plates were read on a Topcount for 30 seconds per well. […]
E. coli paste was resuspended in 10 ml/g of NETN buffer (50 mM Tris pH 7.5, 120 mM NaCl, 1 mM EDTA, 0.5% v/v NP-40, 1 mM PMSF, 1 μg/ml leupeptin, 1 ug/ml aprotinin and 1 ug/ml pepstatin) and sonicated for 2×45 seconds per 100 ml homogenate. […] The final product was analysed by Sodium Dodeca Sulfate (SDS) PAGE (Polyacrylamide gel) using 8-16% Tris-Glycine gels (Novex, San Diego, USA).
The open reading frames of CDK2 and Cyclin E were isolated by reverse transcriptase-PCR using HeLa cell and activated T cell mRNA as a template and cloned into the insect expression vector pVL1393 (obtained from Invitrogen 1995 catalogue number: V1392-20). […]

## Cc1ncc(-c2nc(Nc3ccc(C(=O)NC4CC4)c(F)c3)ncc2F)n1C(C)C [Example 25]
[1]
  AUC: 1.5 µM·h
  Cmax: 680 nM
[2]
  AUC: 0.83 µM·h
  Cmax: 400 nM

## CNC(=O)c1ccc(Nc2ncc(F)c(-c3cnc(C)n3C(C)C)n2)cc1C [Example 28]
[3]
  IC50: 3 nM
